Assay results from US20240270762A1, “PENICILLIN-BINDING PROTEIN INHIBITORS” (priority 2021, published 2024).
In brackets after ≈: the same amount, converted by molar mass. Where two headings read alike, the source gives them in different places.

Assays:
[1] = target: T1, PBP3 from Acinetobacter baumannii (ATCC 19606) (Acinetobacter baumannii, UniProt A0ABX6CK25); experiment: Bocillin-FL fluorescence polarization competition binding, A. baumannii PBP3; conditions: fluorescence polarization competition binding assay using Bocillin-FL; read-out: A. baumannii PBP3 Potency
T1 sequence (A0ABX6CK25 64-610): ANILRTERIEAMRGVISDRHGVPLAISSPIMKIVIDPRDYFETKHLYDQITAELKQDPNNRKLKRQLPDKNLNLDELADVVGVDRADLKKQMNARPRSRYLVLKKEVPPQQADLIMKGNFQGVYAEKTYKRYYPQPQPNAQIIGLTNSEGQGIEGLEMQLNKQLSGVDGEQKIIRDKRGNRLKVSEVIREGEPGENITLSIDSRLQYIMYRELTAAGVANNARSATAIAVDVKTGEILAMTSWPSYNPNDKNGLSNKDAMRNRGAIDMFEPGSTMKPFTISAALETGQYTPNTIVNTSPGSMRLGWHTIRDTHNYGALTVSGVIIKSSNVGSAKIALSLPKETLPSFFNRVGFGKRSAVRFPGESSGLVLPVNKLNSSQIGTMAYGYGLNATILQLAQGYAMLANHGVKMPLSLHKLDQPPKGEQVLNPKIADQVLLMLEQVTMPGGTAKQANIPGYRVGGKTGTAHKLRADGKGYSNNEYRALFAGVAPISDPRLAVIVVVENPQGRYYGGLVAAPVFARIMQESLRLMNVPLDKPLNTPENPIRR
In short: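 Purified PBPs pre-incubated with inhibitor (E. coli PBP3 1.5 μM, 30 min; P. aeruginosa PBP3 0.75 μM, A. baumannii PBP1a 1 μM and PBP3 0.2 μM, 15 min), then Bocillin-FL 0.1 μM (0.05 μM for PBP1a) added; FP read up to 60 min. EC50 = concentration halving bound Bocillin-FL.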

A. baumannii ATCC 19606 = experiment: microbe, parasite or virus in culture; format: cell-based; conditions: Acinetobacter baumannii, ATCC19606, read-out: MIC, A. baumannii ATCC 19606
P. aeruginosa CDC-0090 = experiment: microbe, parasite or virus in culture; format: cell-based; conditions: Pseudomonas aeruginosa, CDC0090, read-out: Minimum inhibitory concentration, P. aeruginosa CDC-0090
A. baumannii 1258916 = experiment: microbe, parasite or virus in culture; format: cell-based, Acinetobacter baumannii; conditions: Acinetobacter baumannii, 1258916, read-out: MIC, A. baumannii 1258916
A. baumannii CDC-0045 = experiment: microbe, parasite or virus in culture; format: cell-based; conditions: Acinetobacter baumannii, CDC0045, read-out: MIC, A. baumannii CDC-0045
N. gonorrhoeae WHO G = experiment: Liquid broth MIC in Fastidious broth; conditions: Neisseria gonorrhoeae
N. gonorrhoeae WHO M = experiment: Liquid broth MIC in Fastidious broth; conditions: Neisseria gonorrhoeae
N. gonorrhoeae CDC-0197 = experiment: Liquid broth MIC in Fastidious broth; conditions: Neisseria gonorrhoeae
Method: ATCC 49226, FA1090, MS11, WHO G, WHO L, and WHO M produce wild type or wild-type like PBP2. WHO K, WHO X, WHO Z, WHO Q, and CDC-0197 produce mosaic PBP2. Liquid broth-based assays were used for antibacterial testing of PBP inhibitors in Neisseria gonorrhoeae. Briefly, cryo-preserved bacterial cultures of clinical strains were streaked for isolation on Chocolate Agar (72 g/L (2×) GC Agar Base (BD #228950) and 2% (2×) Hemoglobin was autoclaved at 121° C. for 20 minutes to sterilize. Once cooled to ˜50° C. the 2×GC Agar Base and 2× Hemoglobin solutions are combined and 1% IsoVitaleX Enrichment (BD #211876) was added to the solution). Strains were incubated at 36° C. and 5% CO2 to allow growth of colonies, 24 hours before inoculum preparation. 2-fold serial dilutions of test compounds were conducted in a 96 well plate with a final volume of 75 μL per well at 2-fold the final desired concentration in Fastidious broth (Remel #R07664). For preparation of assay inoculum, a direct suspension was prepared by aseptically swabbing 10-15 colonies from agar plates into culture tubes containing 2 mL of fresh sterile saline. After the dilution plates were set up, direct suspensions were then diluted in a cuvette containing sterile saline and the optical density was measured at 600 nm. Inocula were diluted such that 75 μL of this culture in Fastidious broth results in a starting bacterial concentration of 5×10^5 CFU/mL when added to the dilution plates. The plates were incubated for ˜24 hours at 36° C. and 5% CO2.

[2] = read-out: Minimum Inhibitory Concentration (MIC), N. gonorrhoeae WHO G
[3] = read-out: Minimum Inhibitory Concentration (MIC), N. gonorrhoeae WHO M
[4] = CDC0197, read-out: Minimum Inhibitory Concentration (MIC), N. gonorrhoeae CDC-0197
[5] = read-out: Minimum Inhibitory Concentration, WHO G
[6] = read-out: Minimum Inhibitory Concentration, WHO M
[7] = CDC0197, read-out: Minimum Inhibitory Concentration, CDC-0197

Compound	IC50 [1] [µM]	MIC (A. baumannii ATCC 19606) [µg/mL]	MIC (P. aeruginosa CDC-0090) [µg/mL]	MIC (A. baumannii 1258916) [µg/mL]	MIC (A. baumannii CDC-0045) [µg/mL]	MIC (N. gonorrhoeae WHO G; [2]) [µg/mL]	MIC (N. gonorrhoeae WHO M; [3]) [µg/mL]	MIC (N. gonorrhoeae CDC-0197; [4]) [µg/mL]	MIC (N. gonorrhoeae WHO G; [5]) [µg/mL]	MIC (N. gonorrhoeae WHO M; [6]) [µg/mL]	MIC (N. gonorrhoeae CDC-0197; [7]) [µg/mL]
O=C(O)c1c(F)ccc2c1OB(O)[C@@H](NC(=O)C(NC(=O)N1CCN(CCCNC(=O)[C@@H]3CCCN3)C(=O)C1=O)c1cc(F)c(O)c(O)c1Cl)C2 (stereo partly drawn) [Example 212, (3R)-3-(2-(2-chloro-5-fluoro-3,4-dihydroxyphenyl)-2-(2,3-dioxo-4-(3-((S)-pyrrolidine-2-carboxamido)propyl)piperazine-1-carboxamido)acetamido)-7-fluoro-2-hydroxy-3,4-dihydro-2H-benzo[e][1,2]oxaborinine-8-carboxylic acid]	< 10	< 1	< 1	2 to 4 (≈ 2.71 to 5.43 µM)	2 to 4 (≈ 2.71 to 5.43 µM)	16 to 32 (≈ 21.7 to 43.4 µM)	16 to 32 (≈ 21.7 to 43.4 µM)	16 to 32 (≈ 21.7 to 43.4 µM)			
CN(CCN1CCN(C(=O)NC(C(=O)N[C@H]2Cc3ccc(F)c(C(=O)O)c3OB2O)c2cc(F)c(O)c(O)c2Cl)C(=O)C1=O)S(=O)(=O)c1cccc(C(N)=O)c1 (stereo partly drawn) [Example 224, (3R)-3-(2-(4-(2-((3-carbamoyl-N-methylphenyl)sulfonamido)ethyl)-2,3-dioxopiperazine-1-carboxamido)-2-(2-chloro-5-fluoro-3,4-dihydroxyphenyl)acetamido)-7-fluoro-2-hydroxy-3,4-dihydro-2H-benzo[e][1,2]oxaborinine-8-carboxylic acid]	< 10	< 1	< 1	2 to 4 (≈ 2.43 to 4.86 µM)	< 1	16 to 32 (≈ 19.4 to 38.9 µM)	16 to 32 (≈ 19.4 to 38.9 µM)	> 64			
O=C(CN1CCN(C(=O)NC(C(=O)N[C@H]2Cc3ccc(F)c(C(=O)O)c3OB2O)c2cc(F)c(O)c(O)c2Cl)C(=O)C1=O)NCc1ccc(O)cc1 (stereo partly drawn) [Example 236, (3R)-3-(2-(2-chloro-5-fluoro-3,4-dihydroxyphenyl)-2-(4-(2-((4-hydroxybenzyl)amino)-2-oxoethyl)-2,3-dioxopiperazine-1-carboxamido)acetamido)-7-fluoro-2-hydroxy-3,4-dihydro-2H-benzo[e][1,2]oxaborinine-8-carboxylic acid]	< 10	< 1		2 to 4 (≈ 2.68 to 5.36 µM)	8 to 16 (≈ 10.7 to 21.5 µM)						
O=C(NCCCN1CCN(C(=O)NC(C(=O)N[C@H]2Cc3ccc(F)c(C(=O)O)c3OB2O)c2cc(F)c(O)c(O)c2Cl)C1=O)c1ccncc1 (stereo partly drawn) [Example 256, (3R)-3-(2-(2-chloro-5-fluoro-3,4-dihydroxyphenyl)-2-(3-(3-(isonicotinamido)propyl)-2-oxoimidazolidine-1-carboxamido)acetamido)-7-fluoro-2-hydroxy-3,4-dihydro-2H-benzo[e][1,2]oxaborinine-8-carboxylic acid]	< 10	< 1	2 to 4 (≈ 2.79 to 5.58 µM)	< 1	< 1				16 to 32 (≈ 22.3 to 44.6 µM)	16 to 32 (≈ 22.3 to 44.6 µM)	> 64
O=C(O)c1cccc2c1OB(O)[C@@H](NC(=O)[C@@H](NC(=O)c1cnc3n(c1=O)CCS3)c1ccc(P(=O)(O)O)cc1)C2 (single isomer, unassigned) [Example 196]						16 to 32 (≈ 26.7 to 53.3 µM)	16 to 32 (≈ 26.7 to 53.3 µM)	16 to 32 (≈ 26.7 to 53.3 µM)			
O=C(NCCN1CCN(C(=O)N[C@@H](C(=O)N[C@H]2Cc3ccc(F)c(C(=O)O)c3OB2O)c2cc(F)c(O)c(O)c2Cl)C(=O)C1=O)Nc1cccnc1 [Example 222, (R)-3-((R)-2-(2-chloro-5-fluoro-3,4-dihydroxyphenyl)-2-(2,3-dioxo-4-(2-(3-(pyridin-3-yl)ureido)ethyl)piperazine-1-carboxamido)acetamido)-7-fluoro-2-hydroxy-3,4-dihydro-2H-benzo[e][1,2]oxaborinine-8-carboxylic acid]	< 10	< 1	2 to 4 (≈ 2.68 to 5.36 µM)	2 to 4 (≈ 2.68 to 5.36 µM)	< 1	4 to 8 (≈ 5.36 to 10.7 µM)	4 to 8 (≈ 5.36 to 10.7 µM)	> 64			
CCN1CCN(C(=O)NC(C(=O)N[C@H]2Cc3cccc(C(=O)O)c3OB2O)c2ccc(P(=O)(O)O)c(F)c2O)C(=O)C1=O (stereo partly drawn) [Example 198, (3R)-3-(2-(4-ethyl-2,3-dioxopiperazine-1-carboxamido)-2-(3-fluoro-2-hydroxy-4-phosphonophenyl)acetamido)-2-hydroxy-3,4-dihydro-2H-benzo[e][1,2]oxaborinine-8-carboxylic acid]						< 1	< 1	< 1			
CN(CCN1CCN(C(=O)N[C@@H](C(=O)N[C@H]2Cc3ccc(F)c(C(=O)O)c3OB2O)c2cc(F)c(O)c(O)c2Cl)C(=O)C1=O)Cc1nccs1 [Example 200, (R)-3-((R)-2-(2-chloro-5-fluoro-3,4-dihydroxyphenyl)-2-(4-(2-(methyl(thiazol-2-ylmethyl)amino)ethyl)-2,3-dioxopiperazine-1-carboxamido)acetamido)-7-fluoro-2-hydroxy-3,4-dihydro-2H-benzo[e][1,2]oxaborinine-8-carboxylic acid]	< 10	< 1	< 1	< 1	< 1	4 to 8 (≈ 5.43 to 10.9 µM)	4 to 8 (≈ 5.43 to 10.9 µM)	> 64			
O=C(NCCN1CCN(C(=O)NC(C(=O)N[C@H]2Cc3ccc(F)c(C(=O)O)c3OB2O)c2cc(F)c(O)c(O)c2Cl)C(=O)C1=O)c1ccc(O)cc1 (stereo partly drawn) [Example 214, (3R)-3-(2-(2-chloro-5-fluoro-3,4-dihydroxyphenyl)-2-(4-(2-(4-hydroxybenzamido)ethyl)-2,3-dioxopiperazine-1-carboxamido)acetamido)-7-fluoro-2-hydroxy-3,4-dihydro-2H-benzo[e][1,2]oxaborinine-8-carboxylic acid]	< 10	< 1	< 1	2 to 4 (≈ 2.68 to 5.36 µM)	2 to 4 (≈ 2.68 to 5.36 µM)	4 to 8 (≈ 5.36 to 10.7 µM)	4 to 8 (≈ 5.36 to 10.7 µM)	16 to 32 (≈ 21.5 to 42.9 µM)			
O=C(NCCS(=O)(=O)N1CCN(C(=O)NC(C(=O)N[C@H]2Cc3ccc(F)c(C(=O)O)c3OB2O)c2cc(F)c(O)c(O)c2Cl)C1=O)Nc1cccc(O)c1 (stereo partly drawn) [Example 266, (3R)-3-(2-(2-chloro-5-fluoro-3,4-dihydroxyphenyl)-2-(3-((2-(3-(3-hydroxyphenyl)ureido)ethyl)sulfonyl)-2-oxoimidazolidine-1-carboxamido)acetamido)-7-fluoro-2-hydroxy-3,4-dihydro-2H-benzo[e][1,2]oxaborinine-8-carboxylic acid]	< 10	< 1	2 to 4 (≈ 2.51 to 5.02 µM)	< 1	< 1				16 to 32 (≈ 20.1 to 40.2 µM)	4 to 8 (≈ 5.02 to 10 µM)	16 to 32 (≈ 20.1 to 40.2 µM)
O=C(NCCCN1CCN(C(=O)NC(C(=O)N[C@H]2Cc3ccc(F)c(C(=O)O)c3OB2O)c2cc(F)c(O)c(O)c2Cl)C1=O)c1nccs1 (stereo partly drawn) [Example 257, (3R)-3-(2-(2-chloro-5-fluoro-3,4-dihydroxyphenyl)-2-(2-oxo-3-(3-(thiazole-2-carboxamido)propyl)imidazolidine-1-carboxamido)acetamido)-7-fluoro-2-hydroxy-3,4-dihydro-2H-benzo[e][1,2]oxaborinine-8-carboxylic acid]	< 10	< 1	2 to 4 (≈ 2.77 to 5.53 µM)	< 1	< 1				> 64	16 to 32 (≈ 22.1 to 44.3 µM)	> 64
O=C(O)c1cccc2c1OB(O)[C@@H](NC(=O)[C@H](NC(=O)c1cnc3n(c1=O)CCS3)c1ccc(P(=O)(O)O)cc1)C2 (single isomer, unassigned) [Example 197]						4 to 8 (≈ 6.66 to 13.3 µM)	4 to 8 (≈ 6.66 to 13.3 µM)	16 to 32 (≈ 26.7 to 53.3 µM)			
O=C(CN1CCN(C(=O)NC(C(=O)N[C@H]2Cc3ccc(F)c(C(=O)O)c3OB2O)c2cc(F)c(O)c(O)c2Cl)C(=O)C1=O)NCc1ccccc1 (stereo partly drawn) [Example 238]	< 10	< 1	2 to 4 (≈ 2.74 to 5.48 µM)	2 to 4 (≈ 2.74 to 5.48 µM)		4 to 8 (≈ 5.48 to 11 µM)	4 to 8 (≈ 5.48 to 11 µM)	16 to 32 (≈ 21.9 to 43.8 µM)			
